# According to patent US8173840B2, “Compounds with high therapeutic index” (Signature R&D Holdings, LLC, priority 2003, dated 2012):
# “And” between values parts separate entries of the source, which are not always exact repeats. Identical values can stand only once. Like-named read-outs stand apart in the source and are kept apart here.
# Tests used:
# [1] = tested on: male albino mice (Swiss strain); experiment: Acetylcholine induced abdominal constriction (writhe) method; assay type: in vivo, mouse; conditions: gavage
# Experimental: Ibuprofen (racemic mixture) and ibuprofen (S)-(+) served as reference controls.
# The study was conducted at two dose levels viz. 50 mg and 100 mg/kg body weight along with a vehicle control group. At each dose level 10 animals were used. All the doses were expressed as ibuprofen molar equivalents. The doses used as well as the molar equivalents are presented below.
# The efficacy in terms of antagonizing effect on acetylcholine induced single writhe at two dose levels—50.0 and 100.0 mg/kg for the three formulations and reference controls are presented below.
# Swiss Albino Mice [2] = experiment: 28-day chronic toxicity study of ibuprofen esters; conditions: 28 days
# Swiss Albino Mice [3] = conditions: mouse, in vivo
# Patient = experiment: Human clinical trial of S(−)Ketorolac-L-Threonine ester (analgesic activity); assay type: in vivo; conditions: for analgesic activity and side effects (words): 13 mg twice daily, oral capsules, Hydrochloride
# Experimental: S(−)Ketorolac-L-Threonine ester capsules were filled using dextrose as the filler. […] For example, 13 mg of S(−)Ketorolac-L-Threonine ester was roughly equivalent to 13 mg of racemic Ketorolac tromethamine in tablet and/or capsule form.
# A patient suffering from severe ankolysing spodolytis, arthritis and other inflammatory joint problems was under treatment with Indomethacin, 25 mg twice daily dose. In order the evaluate the analgesic activity of S(−) Ketorolac-L-Threonine ester, the patient was withdrawn from Indomethacin. After 24 hours, the pain returned and they were administered with 13 mg of S(−) Ketorolac L-Threonine ester, once in the morning and once in the evening. This was repeated for 5 days.
# About 3 months later, the same above volunteer repeated the experiment. This time, after they went off the indomethacin, only one dose of 13 mg of S(−) Ketorolac-L-Threonine ester was administered. […] This treatment was continued for another 3 days of two capsules of 13 mg each. On the morning of the 6th day, they were switched back to Indomethacin.
# albino rats = experiment: Blood clotting time in albino rats, one hour after dosing; assay type: in vivo, rat
# Experimental: The data on the mean clotting time (MCT) of the animals of low, intermediate and high dose groups of different formulations, vehicle control and positive control groups estimated one hour after dosing were presented below (Table 19):
# Aspirin served as positive control. The study was conducted at three dose levels with the new formulations and positive control along with a vehicle control group.
# The doses for the main study were selected based on the dose range finding experiments with acetylsalicylic acid. All the doses were expressed as aspirin molar equivalents. The doses used are presented below.
# [4] = tested on: fasted male albino rats (Wistar strain); experiment: Gastric mucosa irritation of acetylsalicylic acid esters; assay type: in vivo, rat; conditions: two doses, 100 and 200 mg/kg
# Experimental: Aspirin served as a reference control. […] All the doses were expressed as aspirin molar equivalents. The doses used as well as the molar equivalents are presented below. The rats were fasted for a period of 18 to 22 hours before dosing. The test item was administered as a single dose by gavage. Three hours after drug administration, the animals were killed humanely by CO2 gas inhalation. The stomach was dissected out and observed for • the quantity of mucous exudate, • degree of hyperemia and thickening of stomach wall, • hemorrhagic spots (focal or diffuse), nature of hemorrhages (petechial or ecchymotic) along with the size and • perforations
# rats = experiment: Clotting time in rats, different date, time intervals and doses (Table 24); assay type: in vivo, rat
# Excerpt: The following additional data were obtained, when the same drugs were compared in rats on a different date with different time intervals and doses: […]
# [5] = tested on: albino rats (Wistar strain); conditions: rat, in vivo;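 also: one dose level only, compared with a vehicle control group, with doses stated as Aspirin molar equivalents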
# Male albino rats = experiment: Blood clotting time in albino rats, 2 hours after dosing; assay type: in vivo, rat
# Experimental: Aspirin served as positive control. Male albino rats were exposed to aspirin and to 3 new formulations of amino acid derivatives of aspirin derivatives at one dose level of 20 mg/kg body weight. […]. The doses were expressed as aspirin molar equivalents.
# The efficacy in terms of time required for the blood clotting time at the dose level of 20 mg/kg body weight for different formulations of amino acid derivatives of aspirin and aspirin (positive control) are presented below:
# The data on the mean clotting time (MCT) of the animals, estimated 2 hours (±10 minutes) after dosing, at the dose level of 20 mg/kg body weight for the formulations of aspirin derivatives, vehicle control and positive control are presented below
# [6] = Plasma aspirin and salicylic acid in human volunteers; assay type: in vivo
# Excerpt: This is shown in FIG. 12 which depicts the concentration of salicyclic Acid in human plasma with respect to four volunteers who took Acetylsalicyclic Acid-L-Threonine Ester and two volunteers who took Aspirin.
# human volunteers = experiment: Blood clotting time studies in human volunteers; assay type: in vivo; conditions: for AVERAGE CLOTTING TIME: human volunteers, listed as ASA-T ESTER
# Experimental: Several blood clotting time studies were performed on a limited number of human volunteers with Acetylsalicylic Acid-L-Threonine Ester. […] This plot was derived from the data in Table 29. The two Acetylsalicylic Acid-L-Threonine Ester blocks shown above correspond to two separate volunteers who took the test drug over a period of 5 days. The third volunteer took Bayer Aspirin for 5 days. As per FIG. 2, increase in clotting time occurred on the very first day of drug intake, and remained higher than Bayer ASA during the subsequent administrations.
# [7] = Solubility of propofol and its amino acid esters in water; conditions: for solubility: water, solubility in water
# albino mouse = experiment: Anesthetic effect in male albino mice, righting reflex as index; conditions: for efficacy in inducing anesthesia based on time required to regain the righting reflex (conclusion): albino mice; for dose response relation (statistical analysis): low, intermediate, high dose
# [8] = tested on: albino mice (Swiss strain); experiment: 14 day repeated dose toxicity study, intravenous route, propofol esters; conditions: for feed intake / behavior, feed consumption, organ weights, histopathology of different organs / reduced body weight gain compared to vehicle control: 14 days; for behavior, feed consumption, organ weights, histopathology of different organs: vs reference group; for animals exhibiting clinical symptoms of toxicity / body weight gain: IV daily 14 days; for body weight gain: compared to vehicle control
# [9] = cited from earlier work; for solubility in deionized water: deionized water at 25° C.
# [10] = 50.0 mg/kg in terms of Ibuprofen
# [11] = 100.0 mg/kg in terms of Ibuprofen
compound,measurement,setting,value
"CC(C)Cc1ccc(C(C)C(=O)O)cc1 (racemic) [Ibuprofen (racemic mixture), reference compound]","Number of animals showing absence of single writhe (number of animals per dose = 10), One hour after dosing",[1]; [10],4
same,"Number of animals showing absence of single writhe (number of animals per dose = 10), Three hours after dosing",[1]; [10],2
same,"Number of animals showing absence of single writhe (number of animals per dose = 10), One hour after dosing",[1]; [11],6
same,"Number of animals showing absence of single writhe (number of animals per dose = 10), Three hours after dosing",[1]; [11],6
same,No of animals survived,Swiss Albino Mice [2]; 10 animals per group,6
same,Average Change In body Weight,Swiss Albino Mice [2]; surviving animals,2.97 gms
same,Percentage Change of body weight,Swiss Albino Mice [2]; surviving animals,12.54%
same,animals that died,Swiss Albino Mice [3]; both,40%
same,Mortality,Swiss Albino Mice [3]; female,3/5
same,Mortality,Swiss Albino Mice [3]; male,1/5
"S(−)-Ketorolac L-Threonine Ester, Hydrochloride [S(−) Ketorolac L-Threonine ester]",analgesic activity and side effects (words),Patient,"lack of pain, no gastric irritation symptoms, or other side effects"
same,analgesic activity and side effects (words),Patient; listed as S(−) Ketorolac-L-Threonine ester,lack of any pain
same,analgesic activity,"Patient; only one dose of 13 mg daily, after the 2nd day",complained of the pain resurfacing
"CC(=O)Oc1ccccc1C(=O)O[C@H](C)[C@H](N)C(=O)O [2-O-Acetylsalicylic Acid (2S,3R)-(−)-threonine Ester]","Mean Clotting Time (±S.D.), Low Dose","albino rats; 1.0 mg/kg as aspirin, one hour after dosing",5.2 ± 1.14 min
same,"Mean Clotting Time (±S.D.), Intermediate Dose","albino rats; 4.0 mg/kg as aspirin, one hour after dosing",5.6 ± 0.84 min
same,"Mean Clotting Time (±S.D.), High Dose","albino rats; 10.0 mg/kg as aspirin, one hour after dosing",7.4 ± 0.97 min
same,effectiveness with respect to clotting time,albino rats; one hour after administration,as effective as acetylsalicylic acid
same,statistical analysis of mean clotting time vs vehicle control,albino rats; one hour after dosing,significant improvement at 5% significance level in the efficacy for the high dose
same,esters inducing evidence of irritation of gastric mucosa,[4],none
same,Clotting Time,rats; 10 mg/kg 1 hr,7.4 min
same,Clotting Time,rats; 10 mg/kg 24 hr,3.6 min
same,Clotting Time,rats; 20 mg/kg 2 hr,5.3 min
same,response in the rat blood clotting time,rats; compared against the various amino acid esters,consistently a better response
same,"Adrenals (Abs) organ weight, Significance[P < 0.05]",[5],Decrease (Male)
same,"Alkaline Phosphatase, Significance [P < 0.05]",[5],Increase (Female)
same,"All Blood Parameters, Significance [P < 0.05]",[5],None
same,"All Clinical Chemistry, Significance [P < 0.05]",[5],None(but two
same,"Blood Glucose, Significance [P < 0.05]",[5],Decrease (Female)
same,"Cholesterol, Significance [P < 0.05]",[5],Increase (Male)
same,"Creatinine, Significance [P < 0.05]",[5],Decrease (Male)
same,Food intake,[5],normal and comparable to the animals of vehicle control group
same,"Kidney (Abs) organ weight, Significance[P < 0.05]",[5],Decrease (Male)
same,"Kidney (Rel) organ weight, Significance[P < 0.05]",[5],Increase (Male)
same,"Platelet Count, Significance [P < 0.05]",[5],Increase (Male)
same,"Spleen (Abs) organ weight, Significance[P < 0.05]",[5],Decrease (Male)
same,"Total Protein, Significance [P < 0.05]",[5],Increase (Female)
same,histological sections of organs,[5],did not show any histopathological changes
same,Mean Clotting Time (± S.D.),"Male albino rats; 20 mg/kg as aspirin, 2 hours (±10 minutes) after dosing",5.3 ± 1.06 min
same,relative efficacy on clotting time,Male albino rats; 2 hours after dosing,relatively better efficacy than the other two formulations
same,mean blood clotting time with respect to positive control (statistics),Male albino rats; after two hours,no significant difference at 5% significance level
same,"Salicylic Acid in human plasma (profile, words)",[6],prolonged and sustained formation and disappearance of Salicylic acid
same,Aspirin in blood / plasma,"[6]; 325 mg dose, oral",No Aspirin was found in blood
same,AVERAGE CLOTTING TIME,human volunteers; 81 mg,5.2 min and 5.1 min
same,AVERAGE CLOTTING TIME,human volunteers; 325 mg,6.2 min and 6.0 min
same,effectiveness on clotting time,"human volunteers; low dose of 80 mg, with baseline correction",as effective as 325 mg Bayer Aspirin
"CC(C)c1cccc(C(C)C)c1OC(=O)CN.Cl [Propofol Glycine Ester, Amino-acetic acid 2,6-diisopropyl-phenyl ester, hydrochloride]",solubility,[7],> 100 mg/mL
same,"anesthetic effect, relative efficacy",albino mouse; High Dose,more effective
same,"anesthetic effect, relative efficacy",albino mouse; Low Dose,more effective
same,efficacy in inducing anesthesia based on time required to regain the righting reflex (conclusion),albino mouse,relatively better efficacy
same,dose response relation (statistical analysis),albino mouse,not statistically evident
same,feed intake,[8],normal and comparable to that of vehicle control group
same,"behavior, feed consumption, organ weights, histopathology of different organs",[8],normal and comparable to that of the animals of the reference group
same,animals exhibiting clinical symptoms of toxicity,[8],None of the animals
same,body weight gain,[8],reduced in both the sexes
same,MCV vs Propofol injection (RC) [p<0.05],[8]; female animals,significantly decreased
same,granulocytes counts vs Propofol injection (RC) [p<0.05],[8]; female animals,significantly increased
same,reduced body weight gain compared to vehicle control,[8]; females,26.94%
same,reduced body weight gain compared to vehicle control,[8]; males,25.87%
"CC(C)c1cccc(C(C)C)c1OC(=O)C(N)CCCCN.Cl.Cl (stereo in doubt) [Propofol Lysine Ester, 2(S),6-Diamino-hexanoic acid 2,6-diisopropyl-phenyl ester, dihydrochloride]",solubility in water,[7],> 250 mg/mL
same,"anesthetic effect, relative efficacy",albino mouse; Intermediate Dose,did not show any anesthetic effect
same,"anesthetic effect, relative efficacy",albino mouse; Low Dose,did not show any anesthetic effect
same,efficacy in inducing anesthesia based on time required to regain the righting reflex (conclusion),albino mouse,relatively better efficacy
same,dose response relation (statistical analysis),albino mouse,significant improvement at 5% significance level in the relative efficacy for the high dose when compared to low dose group
NCCCC[C@H](N)C(=O)O [lysine],solubility,[9],700 mg/mL
same,solubility in deionized water,[9],approximately 700 g/L
"CC(C)c1cccc(C(C)C)c1OC(=O)C1CCCN1.Cl (stereo in doubt) [Propofol Proline Ester, Pyrrolidine-2(S)-carboxylic acid 2,6-diisopropyl-phenyl ester, hydrochloride]",solubility,[7],> 100 mg/mL
same,"anesthetic effect, relative efficacy",albino mouse; Intermediate Dose,more effective
same,dose response relation (statistical analysis),albino mouse,No significant dose—response effects were evident
same,feed intake,[8],normal and comparable to that of vehicle control group
same,"behavior, feed consumption, organ weights, histopathology of different organs",[8],normal and comparable to that of the animals of the reference group
same,animals exhibiting clinical symptoms of toxicity,[8],None of the animals
same,body weight gain,[8],normal and comparable to that of vehicle control group of animals
same,MCV vs Propofol injection (RC) [p<0.05],[8]; female animals,significantly decreased
same,level of urea vs Propofol injection (RC) [p<0.05],[8]; female animals,significantly decreased
same,granulocytes vs Propofol injection (RC) [p<0.05],[8]; male animals,significantly decreased
same,level of sodium vs Propofol injection (RC) [p<0.05],[8]; male animals,significantly increased
same,lymphocytes counts vs Propofol injection (RC) [p<0.05],[8]; male animals,significantly increased
O=C(O)[C@@H]1C[C@@H](O)CN1 [hydroxyproline],solubility in deionized water,[9],~369 mg/mL
